Results: US5756423A, “Method of controlling plants by inhibition of farnesyl pyrophosphate synthase” (Zeneca Limited, priority 1997, dated 1998)
Like-named read-outs stand apart in the source and are kept apart here.

Experiments:
[1] = tested on: farnesyl pyrophosphate synthase in daffodil chromoplasts; assay: inhibition of farnesyl pyrophosphate synthase in daffodil chromoplasts (14C-isopentenyl pyrophosphate incorporation); format: biochemical, Narcissus pseudonarcissus; conditions: unit inferred, IC50 values in nM, read-out: IC50
Outline: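 Daffodil chromoplasts in pH 7.7 sucrose/MgCl2/HEPES buffer with cysteine, NaF and BSA, started with ~3 micromolar 14C-isopentenyl pyrophosphate, 30 min at 30° C. Butanol-extractable radioactivity counted by scintillation; % residual activity calculated against zero-time and end-point no-inhibitor controls.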

[2] = tested on: wild oat (Avena fatua) (AVEFA); assay: post-emergent herbicidal test, wild oat; format: in vivo; conditions: Avena fatua, post-emergence; post-emergent, 1.0 kg/ha (*), 17-21 days after application; read-out: AVEFA percent control
Outline: (§1)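 Foliar spray, 1 and 4 kg/ha, 0.5% v/v Tween 20 aqueous; grasses 3–4 leaf, broadleaves 1–2 leaf stage, grown 10–12 d. Greenhouse 29/21 °C, 14 h light. Visual % control vs untreated, 17–21 d after treatment.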

[3] = tested on: barnyard grass (Enchinochloa crusgalli) (ECHCG); assay: post-emergent herbicidal test, barnyard grass; format: in vivo; conditions: Echinochloa crus-galli, post-emergence, post-emergent, 1.0 kg/ha (*), 17-21 days after application; read-out: ECHCG percent control
Outline: as §1

[4] = tested on: green foxtail (Setaria viridis) (SETVI); assay: post-emergent herbicidal test, green foxtail; format: in vivo; conditions: Setaria viridis, post-emergence, post-emergent, 1.0 kg/ha (*), 17-21 days after application; read-out: SETVI percent control
Outline: as §1

[5] = tested on: velvetleaf (Abutilon theophrasti) (ABUTH); assay: post-emergent herbicidal test, velvetleaf; format: in vivo; conditions: Abutilon theophrasti, post-emergence, post-emergent, 1.0 kg/ha (*), 17-21 days after application; read-out: ABUTH percent control
Outline: as §1

[6] = tested on: morningglory (Ipomoea spp.) (IPOSS); assay: post-emergent herbicidal test, morningglory; format: in vivo; conditions: Ipomoea, post-emergence, post-emergent, 1.0 kg/ha (*), 17-21 days after application; read-out: IPOSS percent control
Outline: as §1

[7] = tested on: wild mustard (Brassica kaber), also known as Sinapis arvensis (SINAR); assay: post-emergent herbicidal test, wild mustard; format: in vivo; conditions: Brassica, post-emergence, post-emergent, 1.0 kg/ha (*), 17-21 days after application; read-out: SINAR percent control
Outline: as §1

[8] = tested on: yellow nutsedge (Cyperus esculentus) (CYPES); assay: post-emergent herbicidal test, yellow nutsedge; format: in vivo; conditions: Cyperus, post-emergence, post-emergent, 1.0 kg/ha (*), 17-21 days after application; read-out: CYPES percent control
Outline: as §1

Structure (SMILES)	IC50 ([1]; Table I) [nM]	IC50 ([1]; Table II) [nM]	pest or weed control at 1000 g/ha [2] [%]	pest or weed control at 1000 g/ha [3] [%]	pest or weed control at 1000 g/ha [4] [%]	pest or weed control at 1000 g/ha [5] [%]	pest or weed control at 1000 g/ha [6] [%]	pest or weed control at 1000 g/ha [7] [%]	pest or weed control at 1000 g/ha [8] [%]
CCCN(CC(C)C)CC(P(=O)(O)O)P(=O)(O)O [Compound 51]	91	91	100	98	98	70	15	100	5
CCCCN(CCC)CC(P(=O)(O)O)P(=O)(O)O [Compound 52]	87	87	100	100	100	75	20	100	20
CCC1CCCCN1CC(P(=O)(O)O)P(=O)(O)O (centres unmarked) [Compound 53]	112	112	98	100	98	70	30	90	5
CCCN(CCC(=O)O)CC(P(=O)(O)O)P(=O)(O)O [Compound 54]	479	479	0	0	10	0	5	10	0
CC[C@H](C)NCC(P(=O)(O)O)P(=O)(O)O [Compound 56]	32	32	100	100	100	95	98	100	60
CC1CCCN(CC(P(=O)(O)O)P(=O)(O)O)C1C (centres unmarked) [Compound 57]	96	96	100	100	100	80	90	100	15
Cc1cn(CC(P(=O)(O)O)P(=O)(O)O)cn1 [Compound 58]	107	107	100	98	100	98	90	100	10
CCCCCCN(CCC)CC(P(=O)(O)O)P(=O)(O)O [Compound 59]	135	135	85	90	95	30	20	90	5
Cc1cnn(CC(P(=O)(O)O)P(=O)(O)O)c1 [Compound 60]	1410	1410	10	30	30	10	5	20	0
CCCN(CCC(C)C)CC(P(=O)(O)O)P(=O)(O)O [Compound 61]	1000	1000	100	100	90	70	30	90	10
CCCCCN(CCC)CC(P(=O)(O)O)P(=O)(O)O [Compound 62]	186	186	100	85	95	15	30	85	10
O=P(O)(O)C(CN1C=NCCC1)P(=O)(O)O [Compound 65]	50	50	95	100	100	100	100	100	5
CC(O)CNCC(P(=O)(O)O)P(=O)(O)O (centres unmarked) [Compound 66]		58	90	95	98	90	75	100	60
